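The compound was tested at five concentrations on cells cultured in 96-well plates, with a 48-hour exposure period. TGI is the concentration that stops growth completely.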
Legend:
Assay in all cases: NCI tumour cell line growth inhibition, 48 h
HL-60(TB) leukemia = tested on: HL-60(TB) leukemia
NCI-H23 lung = tested on: NCI-H23 lung
SK-MEL-28 melanoma = tested on: SK-MEL-28 melanoma
EKVX NSCLC = tested on: EKVX NSCLC
LOX IMVI melanoma = tested on: LOX IMVI melanoma
UACC-62 melanoma = tested on: UACC-62 melanoma
SK-MEL-2 melanoma = tested on: SK-MEL-2 melanoma
NCI/ADR-RES ovarian = tested on: NCI/ADR-RES ovarian
NCI-H226 lung = tested on: NCI-H226 lung
SNB-75 CNS = tested on: SNB-75 CNS

SMILES | TGI (HL-60(TB) leukemia) [µM] | TGI (NCI-H23 lung) [µM] | TGI (SK-MEL-28 melanoma) [µM] | TGI (EKVX NSCLC) [µM] | TGI (LOX IMVI melanoma) [µM] | TGI (UACC-62 melanoma) [µM] | TGI (SK-MEL-2 melanoma) [µM] | TGI (NCI/ADR-RES ovarian) [µM] | TGI (NCI-H226 lung) [µM] | TGI (SNB-75 CNS) [µM]
CCCCCCCCCCCCc1ccsc1-c1ccc(-c2ccc(-c3sccc3CCCCCCCCCCCC)s2)s1 | > 100 | > 100 | > 100 | > 100 | > 100 | > 100 | > 100 | > 100 | > 100 | > 100
C=C(C)COc1cc(NC(=S)OC(C)C)ccc1Cl | 35.9 | 31.3 | 31.8 | 24.8 | 30.4 | 32.7 | 27.2 | 30.1 | 32.7 | 29.8
COc1ccc2nc3cc(Cl)ccc3c(NCCCCCC(=O)NC(COc3ccc4ccc5cccnc5c4n3)COc3ccc4ccc5cccnc5c4n3)c2c1 | 27.2 | 48.6 | 49 | 58 | > 100 | 56.4 | 45.1 | 73.7 | 35.1 | 35.4
C[C@@H](c1ccccc1)N1CO[C@@]2(C#Cc3ccc4c(c3)OCO4)CCC[C@@H]12 | > 100 | 28.8 | 39 | 52.6 | 25.2 | > 100 | 34.3 | 30.8 | 38.6 | 27.9
